This note sets out measurements from the NIST ThermoML archive (doi:10.1016/j.fluid.2015.03.023).

The conditions of this data set: Liquid; for mass density: 298.15 K, 101.33 kPa, Vibrating tube method; for vapor or sublimation pressure: 308.15 K, Ebulliometric method (Recirculating still).

Numbers after ± are expanded uncertainties.

As usually defined, the mass density is mass per unit of volume. As usually defined, the vapor or sublimation pressure is the equilibrium pressure above the liquid or solid. With `ClC(Cl)(Cl)Br` [bromotrichloromethane], the mass density stood at 2002.14 ± 1.2 kg/m3 and the “vapor or sublimation pressure” value worked out at 8.428 ± 0.1 kPa.
In the same order, the values of `CCCCCCC` [heptane] are 679.6 ± 0.18 kg/m3 and 9.916 ± 0.1 kPa.
The corresponding values for `BrCBr` [dibromomethane] are 2478.61 ± 1.8 kg/m3 and 9.932 ± 0.1 kPa.
In the same order, the values of `ClCBr` [bromochloromethane] are 1921.71 ± 1.1 kg/m3 and 31.05 ± 0.18 kPa.
